Biological target: T1, purified nitrilase (Comamonas testosteroni, UniProt Q59329)
T1 construct: about 280 kDa oligomer of about 38 kDa subunits
Test: Activity of the purified nitrilase as a function of the pH
Assay type: biochemical, Comamonas testosteroni sp.
Details: substrate 10 mM, 25° C., U = μmol of cyanovalerate formed/h
Experimental: The purified nitrilase was tested at different pH values on two substrates, adiponitrile and 5-cyanovalerate, under the conditions indicated in Table 2 below.
COMMON CONDITIONS: [substrate]=10 mM; buffer 10 mM; T 25° C.; [nitrilase]=12 μg/ml for cyanovalerate and 3 μg/ml for adiponitrile (fraction, step 6); U (adiponitrile)=μmol of cyanovalerate formed/h, U (cyanovalerate)=μmol of adipate formed/h.

T1 sequence (Q59329 entry or part of it): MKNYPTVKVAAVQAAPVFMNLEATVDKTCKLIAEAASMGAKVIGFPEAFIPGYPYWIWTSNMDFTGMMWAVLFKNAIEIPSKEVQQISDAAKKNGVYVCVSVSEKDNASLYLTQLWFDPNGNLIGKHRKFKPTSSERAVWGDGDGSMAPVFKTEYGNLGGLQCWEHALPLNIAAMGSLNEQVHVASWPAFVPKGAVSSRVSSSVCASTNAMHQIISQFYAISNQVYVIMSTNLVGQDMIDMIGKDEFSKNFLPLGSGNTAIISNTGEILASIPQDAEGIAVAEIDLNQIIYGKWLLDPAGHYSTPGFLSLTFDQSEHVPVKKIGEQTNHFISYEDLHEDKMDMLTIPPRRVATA

N#CCCCCC#N [Adiponitrile, adiponitrile]
SPECIFIC ACTIVITY (Acetate pH 3.0): 2,300 U/mg of protein
SPECIFIC ACTIVITY (Acetate pH 4.0): 2,900 U/mg of protein
SPECIFIC ACTIVITY (Acetate pH 4.5): 2,800 U/mg of protein
SPECIFIC ACTIVITY (Acetate pH 5.0): 2,700 U/mg of protein
SPECIFIC ACTIVITY (Phosphate pH 6.0): 2,900 U/mg of protein
SPECIFIC ACTIVITY (Phosphate pH 7.0): 2,700 U/mg of protein
SPECIFIC ACTIVITY (Phosphate pH 8.0): 2,800 U/mg of protein
